From US9682991B2, “Tricyclic compounds for use as kinase inhibitors” (FUNDACIÓN CENTRO NACIONAL DE INVESTIGACIONES ONCOLOGICAS …, priority 2009, dated 2017)
Where two headings read alike, the source gives them in different places.

Assays:
[1] = biological target: PIM-1 (Homo sapiens (Human), UniProt P11309); assay: PIM-1 biochemical assay (ADP Hunter)
[2] = biological target: PIM-2 (Homo sapiens (Human), UniProt Q9P1W9); assay: PIM-2 biochemical assay (ADP Hunter); settings: semi-quantitative; read-out: PIM2 IC50
Chain of PIM-2 (Q9P1W9 whole entry): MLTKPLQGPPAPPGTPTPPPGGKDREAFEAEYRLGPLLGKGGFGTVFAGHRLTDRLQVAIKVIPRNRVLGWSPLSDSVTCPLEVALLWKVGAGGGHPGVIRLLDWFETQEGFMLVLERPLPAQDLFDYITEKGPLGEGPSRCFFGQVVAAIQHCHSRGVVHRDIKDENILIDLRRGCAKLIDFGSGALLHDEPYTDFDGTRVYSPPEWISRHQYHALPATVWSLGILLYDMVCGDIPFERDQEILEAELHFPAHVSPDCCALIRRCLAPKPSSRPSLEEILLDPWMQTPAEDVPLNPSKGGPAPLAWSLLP
From the text: The biochemical assay to measure PIM-2 activity relies on the ADP Hunter assay kit (DiscoveRx Corp., Cat. #90-0077), that determines the amount of ADP as direct product of the kinase enzyme activity.

[3] = read-out: PIM1 IC50, semi-quantitative

Chain of PIM-1 (P11309 whole entry): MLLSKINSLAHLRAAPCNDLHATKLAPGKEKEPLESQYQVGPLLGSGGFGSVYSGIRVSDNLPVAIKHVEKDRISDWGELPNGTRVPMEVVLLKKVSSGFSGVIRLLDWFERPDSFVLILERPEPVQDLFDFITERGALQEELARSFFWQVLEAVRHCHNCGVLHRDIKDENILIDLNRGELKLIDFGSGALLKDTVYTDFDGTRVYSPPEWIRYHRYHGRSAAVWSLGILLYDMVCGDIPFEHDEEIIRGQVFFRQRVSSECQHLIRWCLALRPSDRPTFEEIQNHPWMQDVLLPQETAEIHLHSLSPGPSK

| Structure (SMILES) | IC50 [1, 3] [nM] | IC50 [2] [nM] | IC50 [1] [nM] | IC50 ([1]; read-out: PIM1 IC50) [nM] |
| --- | --- | --- | --- | --- |
| CN1CCOc2c1c(N[C@H]1CC[C@H](O)CC1)nn1c(-c3cccc(OC(F)(F)F)c3)nnc21 [Example 19, 4-[6-Methyl-3-(3-trifluoromethoxy-phenyl)-7,8-dihydro-6H-9-oxa-1,2,3a,4,6-pentaaza-cyclopenta[a]naphthalen-5-ylamino]-cyclohexanol] | < 100 | – | – | – |
| CN1CCOc2c(NC3CCNCC3)nn3c(-c4cccc(OC(F)(F)F)c4)nnc3c21 [Example 47, [9-Methyl-3-(3-trifluoromethoxy-phenyl)-8,9-dihydro-7H-6-oxa-1,2,3a,4,9-pentaaza-cyclopenta[a]naphthalen-5-yl]-piperidin-4-yl-amine] | – | > 1000 | 100 to 1000 | – |
| CN1CCC(Nc2nn3c(-c4cccc(OC(F)(F)F)c4)nnc3c3c2OCCN3C)CC1 [Example 3, (1-Methyl-piperidin-4-yl)-[9-methyl-3-(3-trifluoromethoxy-phenyl)-8,9-dihydro-7H-6-oxa-1,2,3a,4,9-pentaaza-cyclopenta[a]naphthalen-5-yl]-amine] | – | > 1000 | 100 to 1000 | – |
| CN1CCOc2c(N3CCC(N)CC3)nn3c(-c4cccc(OC(F)(F)F)c4)nnc3c21 [Example 46, 1-[9-Methyl-3-(3-trifluoromethoxy-phenyl)-8,9-dihydro-7H-6-oxa-1,2,3a,4,9-pentaaza-cyclopenta[a]naphthalen-5-yl]-piperidin-4-ylamine] | – | > 1000 | 100 to 1000 | – |
| CN1CCOc2c(N(C)C3CCNCC3)nn3c(-c4cccc(OC(F)(F)F)c4)nnc3c21 [Example 45, Methyl-[9-methyl-3-(3-trifluoromethoxy-phenyl)-8,9-dihydro-7H-6-oxa-1,2,3a,4,9-pentaaza-cyclopenta[a]naphthalen-5-yl]-piperidin-4-yl-amine] | – | > 1000 | 100 to 1000 | – |
| CN1CCOc2c1c(N[C@H]1CC[C@H](N)CC1)nn1c(-c3cccc(OC(F)(F)F)c3)nnc21 [Example 71, N-[6-Methyl-3-(3-trifluoromethoxy-phenyl)-7,8-dihydro-6H-9-oxa-1,2,3a,4,6-pentaaza-cyclopenta[a]naphthalen-5-yl]-cyclohexane-1,4-diamine] | < 100 | – | – | – |
| CN1CCOc2c1c(NCC1CCN(C(=O)OC(C)(C)C)CC1)nn1c(-c3cccc(OC(F)(F)F)c3)nnc21 [Example 79, 4-{[6-Methyl-3-(3-trifluoromethoxy-phenyl)-7,8-dihydro-6H-9-oxa-1,2,3a,4,6-pentaaza-cyclopenta[a]naphthalen-5-ylamino]-methyl}-piperidine-1-carboxylic acid tert-butyl ester] | – | > 1000 | 100 to 1000 | – |
| CCN1CCOc2c1c(NCC1CC1)nn1c(-c3cccc(OC(F)(F)F)c3)nnc21 [Example 11, Cyclopropylmethyl-[6-ethyl-3-(3-trifluoromethoxy-phenyl)-7,8-dihydro-6H-9-oxa-1,2,3a,4,6-pentaaza-cyclopenta[a]naphthalen-5-yl]-amine] | < 100 | 100 to 1000 | – | – |
| CN1CCOc2c(NCc3ccc(F)cc3)nn3c(-c4cccc(OC(F)(F)F)c4)nnc3c21 [Example 10, (4-Fluoro-benzyl)-[9-methyl-3-(3-trifluoromethoxy-phenyl)-8,9-dihydro-7H-6-oxa-1,2,3a,4,9-pentaaza-cyclopenta[a]naphthalen-5-yl]-amine] | > 1000 | > 1000 | – | – |
| CNC1CCN(c2nn3c(-c4cccc(OC(F)(F)F)c4)nnc3c3c2OCCN3C)CC1 [Example 44, Methyl-{1-[9-methyl-3-(3-trifluoromethoxy-phenyl)-8,9-dihydro-7H-6-oxa-1,2,3a,4,9-pentaaza-cyclopenta[a]naphthalen-5-yl]-piperidin-4-yl}-amine] | – | > 1000 | 100 to 1000 | – |
| CC1COc2c(NCC3CCN(C)CC3)nn3c(-c4cccc(OC(F)(F)F)c4)nnc3c2N1C (centres unmarked) [Example 38, [8,9-Dimethyl-3-(3-trifluoromethoxy-phenyl)-8,9-dihydro-7H-6-oxa-1,2,3a,4,9-pentaaza-cyclopenta[a]naphthalen-5-yl]-(1-methyl-piperidin-4-ylmethyl)-amine] | – | – | 100 to 1000 | – |
| CN1CCOc2c1c(N1CCC3(CCCNC3)CC1)nn1c(-c3cccc(OC(F)(F)F)c3)nnc21 [Example 67, 5-(2,9-Diaza-spiro[5.5]undec-9-yl)-6-methyl-3-(3-trifluoromethoxy-phenyl)-7,8-dihydro-6H-9-oxa-1,2,3a,4,6-pentaaza-cyclopenta[a]naphthalene] | < 100 | – | – | – |
| CN1CCC(CNc2nn3c(-c4cccc(OC(F)(F)F)c4)nnc3c3c2N(C)C(C)(C)CO3)CC1 [Example 73, (1-Methyl-piperidin-4-ylmethyl)-[6,7,7-trimethyl-3-(3-trifluoromethoxy-phenyl)-7,8-dihydro-6H-9-oxa-1,2,3a,4,6-pentaaza-cyclopenta[a]naphthalen-5-yl]-amine] | < 100 | 100 to 1000 | – | – |
| CN1CCOc2c1c(N1CCCC3(CCNCC3)C1)nn1c(-c3cccc(OC(F)(F)F)c3)nnc21 [Example 68, 5-(2,9-Diaza-spiro[S5.5]undec-2-yl)-6-methyl-3-(3-trifluoromethoxy-phenyl)-7,8-dihydro-6H-9-oxa-1,2,3a,4,6-pentaaza-cyclopenta[a]naphthalene] | < 100 | < 100 | – | – |
| CN1CCC(CNc2nn3c(-c4ccc(O)cc4)nnc3c3c2N(C)CCO3)CC1 [Example 84, 4-{6-Methyl-5-[(1-methyl-piperidin-4-ylmethyl)-amino]-7,8-dihydro-6H-9-oxa-1,2,3a,4,6-pentaaza-cyclopenta[a]naphthalen-3-yl}-phenol] | – | > 1000 | 100 to 1000 | – |
| CN1CCOc2c1c(NCC1CC[N+](C)([O-])CC1)nn1c(-c3cccc(OC(F)(F)F)c3)nnc21 (centres unmarked) [Example 103, (1-Methyl-1-oxy-pipe-din-4-ylmethyl)-[6-methyl-3-(3-trifluoromethoxy-phenyl)-7,8-dihydro-6H-9-oxa-1,2,3a,4,6-pentaaza-cyclopenta[a]naphthalen-5-yl]-amine] | < 100 | > 1000 | – | – |
| CN1CCOc2c(NCC34CCN(CC3)C4)nn3c(-c4cccc(OC(F)(F)F)c4)nnc3c21 [Example 53, (1-Aza-bicyclo[2.2.1]hept-4-ylmethyl)-[9-methyl-3-(3-trifluoromethoxy-phenyl)-8,9-dihydro-7H-6-oxa-1,2,3a,4,9-pentaaza-cyclopenta[a]naphthalen-5-yl]-amine] | – | > 1000 | 100 to 1000 | – |
| CN1CCC(CN(C)c2nn3c(-c4cccc(OC(F)(F)F)c4)nnc3c3c2OCCN3C)CC1 [Example 18, Methyl-(1-methyl-piperidin-4-ylmethyl)-[9-methyl-3-(3-trifluoromethoxy-phenyl)-8,9-dihydro-7H-6-oxa-1,2,3a,4,9-pentaaza-cyclopenta[a]naphthalen-5-yl]-amine] | > 1000 | > 1000 | – | – |
| CN1CCN(C)c2c1c(NCc1ccc(F)cc1)nn1c(-c3ccc(O)cc3)nnc21 [Example 94, 4-[5-(4-Fluoro-benzylamino)-6,9-dimethyl-6,7,8,9-tetrahydro-1,2,3a,4,6,9-hexaaza-cyclopenta[a]naphthalen-3-yl]-phenol] | < 100 | > 1000 | 100 to 1000 | – |
| CCN1CCOc2c(NC3CCOCC3)nn3c(-c4cccc(OC(F)(F)F)c4)nnc3c21 [Example 14, [9-Ethyl-3-(3-trifluoromethoxy-phenyl)-8,9-dihydro-7H-6-oxa-1,2,3a,4,9-pentaaza-cyclopenta[a]naphthalen-5-yl]-(tetrahydro-pyran-4-yl)-amine] | – | > 1000 | 100 to 1000 | 583 |
| CNCC1CCN(c2nn3c(-c4cccc(OC(F)(F)F)c4)nnc3c3c2N(C)CCO3)CC1 [Example 63, Methyl-{1-[6-methyl-3-(3-trifluoromethoxy-phenyl)-7,8-dihydro-6H-9-oxa-1,2,3a,4,6-pentaaza-cyclopenta[a]naphthalen-5-yl]-piperidin-4-ylmethyl}-amine] | < 100 | < 100 | – | – |
| CN(CC1CCNCC1)c1nn2c(-c3cccc(OC(F)(F)F)c3)nnc2c2c1N(C)CCO2 [Example 64, Methyl-[6-methyl-3-(3-trifluoromethoxy-phenyl)-7,8-dihydro-6H-9-oxa-1,2,3a,4,6-pentaaza-cyclopenta[a]naphthalen-5-yl]-piperidin-4-ylmethyl-amine] | < 100 | – | – | – |
| CC1COc2c(c(NCC3CCN(C)CC3)nn3c(-c4cccc(OC(F)(F)F)c4)nnc23)N1C (centres unmarked) [Example 39, [6,7-Dimethyl-3-(3-trifluoromethoxy-phenyl)-7,8-dihydro-6H-9-oxa-1,2,3a,4,6-pentaaza-cyclopenta[a]naphthalen-5-yl]-(1-methyl-piperidin-4-ylmethyl)-amine] | < 100 | 100 to 1000 | – | – |
| CC1COc2c(c(N3CCC4(CC3)CC(N)C4)nn3c(-c4cccc(OC(F)(F)F)c4)nnc23)N1C (centres unmarked) [Example 50, 7-[6,7-Dimethyl-3-(3-trifluoromethoxy-phenyl)-7,8-dihydro-6H-9-oxa-1,2,3a,4,6-pentaaza-cyclopenta[a]naphthalen-5-yl]-7-aza-spiro[3.5]non-2-ylamine] | < 100 | – | – | – |
| CN1CCOc2c(NCCN3CCNCC3)nn3c(-c4cccc(OC(F)(F)F)c4)nnc3c21 [Example 42, [9-Methyl-3-(3-trifluoromethoxy-phenyl)-8,9-dihydro-7H-6-oxa-1,2,3a,4,9-pentaaza-cyclopenta[a]naphthalen-5-yl]-(2-piperazin-1-yl-ethyl)-amine] | – | – | 100 to 1000 | – |
| CC(C)NC1CC2(CCN(c3nn4c(-c5cccc(OC(F)(F)F)c5)nnc4c4c3N(C)CCO4)CC2)C1 [Example 87, Isopropyl-{7-[6-methyl-3-(3-trifluoromethoxy-phenyl)-7,8-dihydro-6H-9-oxa-1,2,3a,4,6-pentaaza-cyclopenta[a]naphthalen-5-yl]-7-aza-spiro[3.5]non-2-yl}-amine] | < 100 | – | – | – |
| CN1CCOc2c1c(N[C@H]1CC[C@@H](N)CC1)nn1c(-c3cccc(OC(F)(F)F)c3)nnc21 [Example 70, N-[6-Methyl-3-(3-trifluoromethoxy-phenyl)-7,8-dihydro-6H-9-oxa-1,2,3a,4,6-pentaaza-cyclopenta[a]naphthalen-5-yl]-cyclohexane-1,4-diamine] | < 100 | – | – | – |
